Assay results taken from PubChem BioAssay (NCI).
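Assay format: 96-well plates, 48-hour exposure. GI50 is the concentration that inhibits growth by half. At the TGI there is no net growth.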

Key:
Experiment in all cases: NCI-60 cell line screen, 48 h
[1] = tested on: HL-60(TB) leukemia
[2] = tested on: UACC-62 melanoma
[3] = tested on: PC-3 prostate
[4] = tested on: SF-295 CNS
[5] = tested on: HCT-15 colon
[6] = tested on: OVCAR-4 ovarian
[7] = tested on: NCI-H23 lung
[8] = tested on: NCI-H460 lung
[9] = tested on: HCC-2998 colon
[10] = tested on: TK-10 renal

| SMILES | GI50 [1] [µM] | TGI [1] [µM] | GI50 [2] [µM] | TGI [2] [µM] | GI50 [3] [µM] | TGI [3] [µM] | GI50 [4] [µM] | TGI [4] [µM] | GI50 [5] [µM] | TGI [5] [µM] | GI50 [6] [µM] | TGI [6] [µM] | GI50 [7] [µM] | TGI [7] [µM] | GI50 [8] [µM] | TGI [8] [µM] | GI50 [9] [µM] | TGI [9] [µM] | GI50 [10] [µM] | TGI [10] [µM] |
| --- | --- | --- | --- | --- | --- | --- | --- | --- | --- | --- | --- | --- | --- | --- | --- | --- | --- | --- | --- | --- |
| COc1ccc(C(=O)C[C@]2(O)C(=O)Nc3c(Cl)ccc(Cl)c32)cc1 | 0.343 | 3.06 | 0.486 | > 100 | 1.16 | > 100 | 0.516 | > 100 | 0.35 | > 100 | 12 | > 100 | 1.51 | > 100 | 0.389 | > 53.5 | 1.96 | > 100 | > 29.4 | > 100 |
| CCCCCCCCCCCCCCCCS(=O)(=O)c1ccc(NN)cc1 |  | 6.17 |  | > 10 |  | > 10 |  | > 10 |  | > 10 |  | > 10 |  | > 10 |  | > 10 |  | > 10 |  | > 10 |
| CCOCNc1ccc(N2C(=O)/C(=C/c3ccc(N(CC)CC)cc3)N=C2c2ccccc2)cc1 | 25 | > 100 | 3.93 | 37.1 | 5.83 | > 100 | 9.8 | > 100 | 1.06 | > 100 | > 100 | > 100 | 27.3 | > 100 | 2.86 | > 100 | > 100 | > 100 | 22.3 | > 100 |
| COc1cc2cc(Oc3ccc(NC(=O)c4cccc5c4OCCO5)cc3)c(C)nc2cc1OC | 5.38 | > 100 | 6.24 | > 100 | 2.49 | 16.2 | 2.91 | > 100 | 7.87 | > 100 | 3.32 | 35 | 8.14 | > 100 | 8.36 | > 100 | 5.5 | > 100 | 15.7 | > 100 |
| COc1ccccc1/C=C\C(=O)c1ccccc1 | 5.06 | 45.6 | 5.57 | 18.7 | 5.85 | 23 | 3.27 | 14 | 4.8 | 19.3 | 4.31 | 17.1 | 13.5 | 29.4 | 5.75 | 18.4 | 7.34 | 19.9 | 12.5 | 25.2 |
| C1=C2CNCC3=Cc4ccc5ccccc5c4OC23Oc2c1ccc1ccccc21 | 2.69 | 7.68 | 5.05 | 21.7 | 3.5 | 18.2 | 3.07 | 15.6 | 3.9 | 22.6 | 4.71 | 19.8 | 6.94 | 32 | 3.27 | 13.1 | 3.99 | 19.7 | 9.08 | 27.4 |
| COc1cc([C@H]2c3[nH]c4ccccc4c3C[C@H]3COC(=O)N32)cc(OC)c1O |  | 14.5 |  | 43.4 |  | > 100 |  | 81.8 |  | 38.5 |  | > 100 |  | 17.1 |  | 23.2 |  | 27 |  | 27 |
| Cn1cc(CO)c2ccccc21 | 32.5 | > 100 | 54.9 | > 100 | 85 | > 100 | 34.2 | > 100 | 22.4 | > 100 | 56.5 | > 100 | 48.2 | > 100 | 30.7 | > 100 | > 100 | > 100 | > 100 | > 100 |
| COc1cc2nnn3c4ncccc4c(N=O)c3c2cc1OC | 0.0506 | > 100 | 4.87 | 24.5 | 5.62 | > 100 | 4.99 | 29.4 | 2.2 | 21.1 | 3.23 | > 100 | 6.4 | 27.9 | 3.64 | 22.8 | 2.28 | 10.8 | 7.98 | > 88.6 |
| COC(=O)[C@H](Cc1ccccc1)NC(=O)c1csc([C@@H](C[C@H](C(C)C)N(C)C(=O)[C@@H](NC(=O)[C@H]2CCCN2C)C2CC2)OC(C)=O)n1 | 0.204 | 1.9 | 1.38 | > 33.3 | 0.572 | > 33.3 | 0.254 | > 33.3 | 0.855 | > 33.3 | 3.98 | > 33.3 | 1.46 | > 33.3 | 0.397 | > 33.3 | 1.48 | > 33.3 | 4.18 | > 33.3 |
| O=C(CCN1CCCC1)Nc1ccc2c(Nc3ccccc3)c3ccccc3nc2c1 | 0.264 | 1.61 | 1.12 | 2.55 | 0.951 | 3.01 | 0.498 | 1.91 | 0.367 | 2.36 | 0.468 | 2.13 | 0.383 | 2 | 0.0489 | 1.2 | 0.733 | 2.29 | 1.28 | 3.78 |
| Fc1c[c-]c(-c2ccccn2)c(F)c1.[CH3-].[Pt+2].c1ccc(P(C[PH+](c2ccccc2)c2ccccc2)c2ccccc2)cc1 | 0.38 | 1.56 | 0.545 | 1.89 | 0.373 | 1.53 | 0.708 | 1.82 | 0.975 | 2.25 | 0.61 | 3.71 | 0.563 | 1.99 | 0.591 | 1.54 | 0.484 | 1.29 | 0.991 | 3.39 |
| C[C@@H]1C/C=C\C(=O)O[C@H](/C=C/C#C/C=C/C(C)(C)[C@@H](O)c2cccc(O)c2Br)[C@@H](C)/C=C/[C@H](C)C[C@H](OC(N)=O)C1 | 0.0382 | 2.26 | 0.0239 | 0.0656 | 0.045 | 17.4 | 0.0212 | 0.0485 | 0.034 | 11.9 | 6.45 | 22 | 0.319 | 21.6 | 0.0234 | 11.2 | 0.054 | 11.8 | 4.28 | 21.6 |
